{
  "source": "patent US20090269753A1",
  "about": "(priority 2007, published 2009)",
  "key": {"fasl": {"system": "fasl", "experiment": "fasl real-time RT-PCR in SRC-1-/- osteoclasts transfected with SRC-1 WT or P1272S", "assay_type": "cell-based, mice", "settings": "estradiol 10 nM or 40H-Tamoxifen 1 μM, 24 h"}, "[1]": {"experiment": "Hip and lumbar BMD by DXA at baseline and after 12 months of tamoxifen treatment", "assay_type": "in vivo, women", "excerpt": "Patients were enrolled after they had completed all primary surgery, radiation, and adjuvant chemotherapy."}, "[2]": {"settings": "SRC-1-/- osteoclasts with P1272S SRC-1"}, "[3]": {"settings": "SRC-1-/- osteoclasts with transfected Flag-SRC-1 WT vs vector alone"}},
  "data": [
    {"smiles": "C[C@]12CC[C@@H]3c4ccc(O)cc4CC[C@H]3[C@@H]1CC[C@@H]2O", "note": "[Estrogen, estradiol]", "values": [
      {"measurement": "Induction of fasl", "setting": "fasl; [2]", "result": "failed to upregulate fasl"},
      {"measurement": "Induction of fasl", "setting": "fasl; [3]", "result": "detectable"}
    ]},
    {"smiles": "CC/C(=C(\\c1ccccc1)c1ccc(OCCN(C)C)cc1)c1ccccc1", "note": "[Tamoxifen, tamoxifen]", "values": [
      {"measurement": "Induction of fasl", "setting": "fasl; [2]", "result": "failed to upregulate fasl"},
      {"measurement": "Induction of fasl", "setting": "fasl; [3]", "result": "detectable"},
      {"measurement": "Lumbar BMD decrease", "setting": "[1]; P1272S carriers (n=4), p=0.04 vs women without the SNP", "result": 6.4, "unit": "%"},
      {"measurement": "hip BMD decrease", "setting": "[1]; SNP carriers (n=4), p=0.08 vs WT group", "result": 4.3, "unit": "%"},
      {"measurement": "hip BMD decrease", "setting": "[1]; WT group (n=102)", "result": 0.6, "unit": "%"},
      {"measurement": "Lumbar BMD decrease", "setting": "[1]; women without the SNP (n=107)", "result": 1.3, "unit": "%"}
    ]}
  ]
}
